The text below walks through data of PubChem BioAssay (NCI).

Molecules are shown by their SMILES.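 Briefly, cells in 96-well plates were exposed to five compound concentrations for 48 h, and endpoints were estimated by linear interpolation. Here, GI50 denotes the concentration required for 50% inhibition of growth. TGI denotes the concentration required for complete inhibition of growth.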

Common to all, as to assay: NCI anticancer screen, dose series, 48 h
For assay [1], the system named is SF-295 CNS.
The test system of assay [2] is UACC-257 melanoma.
The test system of assay [3] is OVCAR-8 ovarian.
Assay [4] has as its system TK-10 renal.
Assay [5] relates to NCI-H226 lung.
For assay [6], the system named is EKVX NSCLC.
Assay [7] concerns MDA-N.
Assay [8] deals with SW-620 colon.

On to `O=S(=O)(O)c1cc(N=[N+]([O-])c2cc(S(=O)(=O)O)c3ccccc3c2)cc2ccccc12`, for which the TGI in assay [1], in assay [2], in assay [3], in assay [4], in assay [5] and in assay [6] was above 100 µM throughout. Moreover, the TGI in assay [7] was 41.7 µM; in assay [8] it was above 100 µM.
`O=C1CC(c2ccc(Cl)cc2)C2(C(=O)NC(=O)NC2=O)C(c2ccc(Cl)cc2)C1` (stereo not given): the TGI was above 75 µM in assay [1]; above 75 µM in assay [2]; above 75 µM in assay [3]; above 75 µM in assay [4]; 36.4 µM in assay [5]; above 75 µM in assay [6]. The TGI in assay [7] was determined as 49 µM; in assay [8], 67.4 µM.
Take `COc1cc2c(cc1OCCCCCCCCN1C(=O)c3cccc4cccc(c34)C1=O)N=C[C@@H]1CCCN1C2=O`: the TGI in assay [1] was 43 µM; in assay [2], 68.8 µM; in assay [3] it was 57.8 µM; in assay [4], above 100 µM; in assay [5], 46.8 µM; in assay [6], 35.7 µM. In assay [8], the TGI is above 100 µM.
For `CC(C)C1OC(=O)/C=C/C=C/C=C/C=C/C=C/CC(O)C(C)C(O)CC(O)CC(O)CC(O)CC(O)CC(O)CC(O)/C=C/C1C` (stereo not given), the TGI in assay [1], in assay [2], in assay [3], in assay [4], in assay [6] and in assay [8] was above 100 µM throughout.
For `NC(=S)N1N=C(c2ccccc2O)CC1c1ccccc1` (stereo not given), the TGI was 29.2 µM in assay [1]; 39.1 µM in assay [2]; above 100 µM in assay [3]; 78.3 µM in assay [4]; 53.8 µM in assay [5]; 70.6 µM in assay [6]. Besides, the TGI is 10.5 µM in assay [7] and above 100 µM in assay [8].
Regarding `C1=CC(=[N+]2N=C(c3ccccc3)CC2c2ccccc2)C=CC1=C1SC(c2ccccc2)(c2ccccc2)c2ccccc21` (stereo not given), the TGI in assay [1], in assay [3], in assay [4], in assay [5], in assay [6] and in assay [7] was above 100 µM throughout. Further, in assay [8], the TGI is above 100 µM.
Consider `CCOC(=O)C1=COC(C)(c2ccccc2)CC1=O` (stereo not given), for which the TGI in assay [1], in assay [2], in assay [3], in assay [4], in assay [6] and in assay [7] was above 100 µM each time. Besides, in assay [8], the TGI is above 100 µM.
In the case of `O=C1CC2(CCC(O)(c3cccs3)C(C(=O)c3cccs3)C2)C(=O)c2ccccc2N1` (stereo not given), the TGI in assay [1], in assay [2], in assay [3], in assay [4], in assay [5] and in assay [6] was above 100 µM each time. In addition, the TGI in assay [7] and in assay [8] was above 100 µM in each case.
Turning to `O=c1c2ccccc2[nH]c(=S)n1-c1ccc(N=Nc2cccc3cc(O)ccc23)cc1`, the TGI in assay [1], in assay [2], in assay [3], in assay [4], in assay [5] and in assay [6] was above 100 µM throughout. In addition, the TGI in assay [7] and in assay [8] was above 100 µM throughout.
With `O=C(Cn1c2ccc(Br)cc2c2nc3ccccc3nc21)N/N=C/c1ccccc1`, the TGI is 84.8 µM in assay [1]; above 100 µM in assay [2]; above 100 µM in assay [3]; above 100 µM in assay [4]; above 100 µM in assay [5]; above 100 µM in assay [6]. In addition, the TGI in assay [8] is above 100 µM.
Turning to `CC(C)(C)[Si](C)(C)OCC1OC(n2cnc3c(N)ncnc32)CC1OS(C)(=O)=O` (stereo not given), the TGI in assay [1], in assay [2], in assay [3], in assay [4], in assay [5] and in assay [7] was above 100 µM in each case. This compound yielded a TGI in assay [8] above 100 µM.
For `Nc1cc(-c2ccc(Cl)cc2)nn1-c1nc2ccccc2nc1-c1ccccc1`, the TGI in assay [1], in assay [2], in assay [3], in assay [4], in assay [5] and in assay [6] was above 100 µM each time. Further, the TGI in assay [7] and in assay [8] was above 100 µM throughout.
As to `CCO/C(O)=C(/C(=N)N1CCCC1)C(=O)Nc1ccc(F)cc1`, the TGI in assay [1], in assay [2], in assay [3], in assay [4], in assay [5] and in assay [6] was above 100 µM throughout. Also, the TGI in assay [7] and in assay [8] was above 100 µM throughout.
`Cc1nc2ncn3c(c-2c1Cc1ccccc1)NC=C(O)N3`: the TGI in assay [1], in assay [2], in assay [3], in assay [4], in assay [5] and in assay [6] was above 100 µM throughout. For the same compound, the TGI in assay [7] and in assay [8] was above 100 µM throughout.
In the case of `CCCN1C(=O)CSC1=Nc1ccc2cc3ccc(N=C4SCC(=O)N4CCC)cc3nc2c1`, the GI50 is 30 µM in assay [1]; above 100 µM in assay [2]; 50.7 µM in assay [3]; 32.1 µM in assay [4]; 16.5 µM in assay [5]; above 100 µM in assay [6]. Besides, the GI50 in assay [8] was above 100 µM. Moreover, the TGI is above 100 µM in assay [1]; above 100 µM in assay [2]; above 100 µM in assay [3]; 90.6 µM in assay [4]; above 100 µM in assay [5]; above 100 µM in assay [6]. The compound further displayed a TGI in assay [8] above 100 µM.
Consider `CSCCC(NC(=O)OCc1ccccc1)P(=O)(O)c1ccccc1` (stereo not given), for which the TGI in assay [1], in assay [2], in assay [3], in assay [4], in assay [5] and in assay [7] was above 100 µM in each case. The TGI in assay [8] was above 100 µM.
`O=[N+]([O-])c1ccc2c(c1)nc(Cc1ccc(Cl)cc1)n2C[C@@H]1CCCN2CCCCC12` (stereo not given in full): the TGI is 29.3 µM in assay [1]; 31.4 µM in assay [2]; 30.4 µM in assay [3]; 39.9 µM in assay [4]; 38.3 µM in assay [5]; above 41.2 µM in assay [6]. Besides, the TGI in assay [7] is 25.9 µM; in assay [8], above 59 µM.
With `Nc1ccc(-c2nc3cc(F)ccc3s2)cc1CO`, the TGI in assay [1] was 34.8 µM; in assay [2] it was above 100 µM; in assay [3] it was above 100 µM; in assay [5], 0.409 µM; in assay [6], above 100 µM; in assay [7], above 100 µM. Moreover, the TGI in assay [8] is above 100 µM.
With `C/C(N=Nc1nc2ccccc2[nH]1)=C1/C=CC=CN1O`, the TGI in assay [1], in assay [2], in assay [3], in assay [4], in assay [5] and in assay [6] was above 100 µM each time. Moreover, the TGI in assay [7] and in assay [8] was above 100 µM in each case.
For `COc1cc2c(cc1C)NC(=O)/C2=C/c1c(Cl)n(-c2ccccc2)c2ccccc12`, the TGI was 49 µM in assay [1]; 61.7 µM in assay [2]; above 100 µM in assay [3]; above 100 µM in assay [4]; above 100 µM in assay [6]; 37 µM in assay [7]. Moreover, the TGI in assay [8] worked out at 38.7 µM.
Regarding `N#Cc1c(N)nc2c(c1-c1ccc(Br)cc1)CSc1ccccc1-2`, the TGI is 72.5 µM in assay [2]; above 100 µM in assay [3]; above 100 µM in assay [4]; 85.6 µM in assay [5]; above 100 µM in assay [7]; above 100 µM in assay [8].
With `Nc1cc(N2CCOCC2)nc(=O)n1-c1ccc(Cl)cc1`, the TGI in assay [1], in assay [2], in assay [3], in assay [5], in assay [6] and in assay [7] was above 100 µM in each case. In addition, the TGI in assay [8] is above 100 µM.
As for `Nc1ccc(Oc2ccc(C34CC5CC(C3)CC(c3ccc(Oc6ccc(N)cc6)cc3)(C5)C4)cc2)cc1`, the TGI in assay [1] was above 56.4 µM; in assay [2] it was 40.9 µM; in assay [3], 23.6 µM; in assay [4], above 39.4 µM; in assay [5], 75.2 µM; in assay [6], above 66.5 µM. The TGI is above 45.1 µM in assay [7] and above 100 µM in assay [8].
Take `CC(=O)c1ccc2c(c1)N(CCCN1CCN(CCO)CC1)c1ccccc1C2`: the TGI worked out at 31.8 µM in assay [1]; 18.9 µM in assay [2]; 30.7 µM in assay [3]; 29.1 µM in assay [4]; 30.9 µM in assay [5]; 33.6 µM in assay [6]. Further, the TGI in assay [7] worked out at 26.7 µM; in assay [8], 31.3 µM.
For `C#C[C@]1(O)CC[C@H]2[C@@H]3CCC4=C/C(=N\OCCN(CC)CC)CC[C@]4(C)[C@H]3CC[C@@]21C`, the TGI in assay [1] was 5.21 µM; in assay [2], 16.9 µM; in assay [3] it was 24.6 µM; in assay [4], 23.5 µM; in assay [5] it was 29.8 µM; in assay [6], 26.6 µM. Moreover, the TGI was 6.24 µM in assay [7] and above 29.1 µM in assay [8].
`COC(=S)OC1CC(n2cnc3c(N)ncnc32)OC1CO[Si](C)(C)C(C)(C)C` (stereo not given): the TGI in assay [1] was 34.6 µM; in assay [2], 72.8 µM; in assay [3] it was 69.5 µM; in assay [4], above 100 µM; in assay [5] it was 59.2 µM; in assay [7], 46.7 µM. Besides, the TGI in assay [8] was above 100 µM.
Take `O=C1/C(=C\c2ccc(F)cc2)CCOc2c1ccc1ccccc21`: the TGI in assay [1] was 70.3 µM; in assay [2], 54.4 µM; in assay [3], 35.2 µM; in assay [4] it was 60.7 µM; in assay [5] it was above 100 µM; in assay [6], above 100 µM. Besides, the TGI in assay [8] is above 100 µM. The GI50 in assay [5] is 33.6 µM.
Regarding `COC(OC)C1OC(CO)C(n2cc(F)c(=O)[nH]c2=O)C1O` (stereo not given), the TGI in assay [1], in assay [2], in assay [3], in assay [4], in assay [5] and in assay [6] was above 100 µM throughout. In addition, the TGI in assay [7] and in assay [8] was above 100 µM throughout.
As for `COC(CN(C=O)[C@@H](c1ccc(Cl)cc1)c1cc2ccccc2o1)OC`, the TGI in assay [1] came to 31 µM; in assay [2] it was 28 µM; in assay [3], 31.3 µM; in assay [4], 33.4 µM; in assay [5], 34 µM; in assay [6], 34.4 µM. Besides, the TGI is 31.6 µM in assay [7] and 31.4 µM in assay [8].
For `CC1(C)CCC[C@]2(C)[C@@H]1CC[C@@]13O[C@@H]1C1=C(CO)C(=O)OC1=C[C@@H]23`, the TGI in assay [1] came to 44.9 µM; in assay [2], 71.2 µM; in assay [4], 55.5 µM; in assay [5] it was 30.2 µM; in assay [6], 29.2 µM; in assay [8], 37.5 µM.
As for `O=c1[nH]c(Nc2ccc(Cl)cc2)nc2nc[nH]c12`, the TGI in assay [1], in assay [2], in assay [3], in assay [4], in assay [5] and in assay [6] was above 100 µM in each case. In addition, the TGI in assay [8] was above 100 µM.
For the compound `CCCCCOC(=O)c1cc2cc(CCl)ccc2oc1=O`, the TGI in assay [1] was 60.4 µM; in assay [2], 5.96 µM; in assay [3], above 63 µM; in assay [4], 5.3 µM; in assay [5] it was 38 µM; in assay [6], 18.4 µM. Moreover, the TGI in assay [7] was found to be 20.9 µM; in assay [8], 56.6 µM.
In the case of `COC(=O)C[C@H](COCc1ccccc1)NC(=O)C[C@H](COCc1ccccc1)NC(=O)OC(C)(C)C`, the TGI was above 100 µM in assay [1]; 61.7 µM in assay [3]; above 100 µM in assay [5]; 45.4 µM in assay [6]; above 100 µM in assay [8].
